Measurements published in US6545151B2, “Pentacyclic compound” (Daiichi Pharmaceutical Co., Ltd., priority 1995, dated 2003).
Converted amounts (≈) assume the structure as drawn.

Experiments:
PC-6 = assay: MTT cell proliferation test, PC-6; type: cell-based; conditions: PC-6 tumor cell line, cultured for 3 days, absorbance at 540 nm
Protocol: (§1) Cells of each of three tumor cell lines, P388, PC-6 and PC-12, were inoculated into a 96 well microplate in an inoculum size of 5.0×10^2 cells/150 μl/well (P388), 5.0×10^3 cells/150 μl/well (PC-6) or 1.0×10^3 cells/150 μl/well (PC-12), and 50 μl/well of each sample was added to the plate 2 hours thereafter in the case of P388 or 24 hours thereafter in the case of the other two. Thereafter, the cells were cultured for 3 days and then 5 mg/ml solution of MTT [3-(4,5-dimethylthiazol-2-yl)-2,5-diphenyl-2H-tetrazolium bromide] was dispensed in 20 μl/well portions into wells of the microplate. Four hours thereafter, the culture medium was removed, 150 μl of dimethyl sulfoxide was added to each well and then absorbance at 540 nm was measured. The antitumor effect is shown as GI50 value (ng/ml) of each drug which decreases cell proliferation in each drug-added group to 50% of that in the control group.

PC-12 = assay: MTT cell proliferation test, PC-12; type: cell-based; conditions: PC-12 tumor cell line, cultured for 3 days, absorbance at 540 nm
Protocol: as §1

P388 = assay: MTT cell proliferation test, P388; type: cell-based; conditions: P388 tumor cell line, cultured for 3 days, absorbance at 540 nm
Protocol: as §1

[1] = test system: digestive organ cancers, especially large bowel cancers; conditions: clinical tests; cited from earlier work

| Molecule | GI50 value (PC-6) | GI50 value (PC-12) | GI50 value (P388) | efficacy on digestive organ cancers, especially large bowel cancers [1] |
| --- | --- | --- | --- | --- |
| 9β-4-O-Butanoyl-13-O-[(2R,3R)-3-(tert-butoxycarbonylamino)-3-(2-furyl)-2-hydroxypropionyl]-4,10-dideacetyl-9-dihydro-9,10-O-(2-morpholinoethylidene)baccatin III [Inventive Example 22] | 0.187 ng/mL | 0.181 ng/mL | 0.0193 ng/mL |  |
| 9β-13-O-[3-(tert-Butoxycarbonylamino)-2-hydroxy-2-methyl-3-(4-pyridyl)propionyl]-10-deacetyl-7-deoxy-9-dihydro-9,10-O-isopropylidenebaccatin III [Inventive Example 95] | 0.0992 ng/mL | 0.0121 ng/mL | 0.0034 ng/mL |  |
| 9β-13-O-[(2R,3R)-3-(tert-Butoxycarbonylamino)-3-(2-furyl)-2-hydroxypropionyl]-4-O-cyclopropanecarbonyl-4,10-dideacetyl-9-dihydro-9,10-O-(2-morpholinoethylidene)baccatin III [Inventive Example 51] | 0.354 ng/mL | 0.0669 ng/mL | 0.00754 ng/mL |  |
| 9β-13-O-[3-(tert-Butoxycarbonylamino)-2-hydroxy-2-methyl-3-(4-pyridyl)propionyl]-4,10-dideacetyl-9-dihydro-4-O-ethoxycarbonyl-9,10-O-isopropylidenebaccatin III [Inventive Example 101] | 0.409 ng/mL | 0.125 ng/mL | 0.0301 ng/mL |  |
| CC(=O)O[C@@]12CO[C@@H]1C[C@H](O)[C@@]1(C)C(=O)[C@H](O)C3=C(C)[C@@H](OC(=O)[C@H](O)[C@@H](NC(=O)OC(C)(C)C)c4ccccc4)C[C@@](O)([C@@H](OC(=O)c4ccccc4)[C@H]21)C3(C)C [Taxotere, reference compound] | 1.16 ng/mL (≈ 1.44 nM) | 19.1 ng/mL (≈ 23.6 nM) | 1.62 ng/mL (≈ 2.01 nM) | low efficacy |
| CC(=O)O[C@H]1C(=O)[C@@]2(C)[C@H]([C@H](OC(=O)c3ccccc3)[C@]3(O)C[C@H](OC(=O)[C@H](O)[C@@H](NC(=O)c4ccccc4)c4ccccc4)C(C)=C1C3(C)C)[C@]1(OC(C)=O)CO[C@@H]1C[C@@H]2O [Taxol, reference compound] | 1.20 ng/mL (≈ 1.41 nM) | 82.2 ng/mL (≈ 96.3 nM) | 4.36 ng/mL (≈ 5.11 nM) | low efficacy |
| 9β-13-O-[(2R,3S)-3-(tert-Butoxycarbonylamino)-2-hydroxy-3-(2-pyridyl)propionyl]-4-O-cyclopropanecarbonyl-4,10-dideacetyl-9-dihydro-9,10-O-isopropylidenebaccatin III [Inventive Example 69] | 0.0915 ng/mL | 0.0466 ng/mL | 0.0161 ng/mL |  |
| 9β-13-O-[3-(tert-Butoxycarbonylamino)-2-hydroxy-2-methyl-3-(4-pyridyl)propionyl]-4-O-cyclopropanecarbonyl-7-deoxy-4,10-dideacetyl-6,7-didehydro-9-dihydro-9,10-O-isopropylidenebaccatin III [Inventive Example 121] | 0.803 ng/mL | 0.0498 ng/mL | 0.00173 ng/mL |  |
| 9β-13-O-[(2R,3S)-3-(tert-Butoxycarbonylamino)-2-hydroxy-3-(4-pyridyl)propionyl]-4-O-cyclopropanecarbonyl-4,10-dideacetyl-7-deoxy-9-dihydro-9,10-O-isopropylidenebaccatin III [Inventive Example 70] | 0.160 ng/mL | 0.0184 ng/mL | 0.00137 ng/mL |  |
| 9β-13-O-[(2R,3R)-3-(tert-Butoxycarbonylamino)-3-(2-furyl)-2-hydroxypropionyl]-4-O-cyclopropanecarbonyl-7-deoxy-4,10-dideacetyl-6,7-didehydro-9-dihydro-9,10-O-(2-morpholinoethylidene)baccatin III [Inventive Example 123] | 0.366 ng/mL | 0.167 ng/mL | 0.0158 ng/mL |  |
| 9β-13-O-[3-(tert-Butoxycarbonylamino)-2-hydroxy-2-methyl-3-(4-pyridyl)propionyl]-4-O-cyclopropanecarbonyl-4,10-dideacetyl-7-deoxy-9-dihydro-9,10-O-isopropylidenebaccatin III [Inventive Example 65] | 0.278 ng/mL | 0.0684 ng/mL | 0.00509 ng/mL |  |
| 9β-13-O-[(2R,3R)-3-(tert-Butoxycarbonylamino)-3-(2-furyl)-2-hydroxypropionyl]-4,10-dideacetyl-9-dihydro-9,10-O-(2-morpholinoethylidene)-4-O-propionylbaccatin III [Inventive Example 25] | 1.31 ng/mL | 0.234 ng/mL | 0.0549 ng/mL |  |
| 9β-13-O-[(2R,3R)-3-(tert-Butoxycarbonylamino)-3-(2-furyl)-2-hydroxypropionyl]-10-deacetyl-7-deoxy-9-dihydro-9,10-O-(2-morpholinoethylidene)baccatin III [Inventive Example 79] | 0.0673 ng/mL | 0.0264 ng/mL | 0.00689 ng/mL |  |
| 7α,9β-4-O-Butanoyl-13-O-[(2R,3R)-3-(tert-butoxycarbonylamino)-3-(2-furyl)-2-hydroxypropionyl]-7-deoxy-4,10-dideacetyl-9-dihydro-7-fluoro-9,10-O-(2-morpholinoethylidene)baccatin III [Inventive Example 81] | 0.0604 ng/mL | 0.050 ng/mL | 0.0048 ng/mL |  |
| 9β-13-O-[(2R,3R)-3-(tert-Butoxycarbonylamino)-2-hydroxy-3-(2-thienyl)propionyl]-10-deacetyl-7-deoxy-9-dihydro-9,10-O-(2-morpholinoethylidene)baccatin III [Inventive Example 98] | 0.0696 ng/mL | 0.022 ng/mL | 0.0126 ng/mL |  |
| 9β-13-O-[(2R,3R)-3-(tert-Butoxycarbonylamino)-3-(2-furyl)-2-hydroxypropionyl]-10-deacetyl-7-deoxy-9-dihydro-9,10-O-(2-dimethylaminoethylidene)baccatin III [Inventive Example 105] | 0.190 ng/mL | 0.0643 ng/mL | 0.0475 ng/mL |  |
| 9β-13-O-[3-(tert-Butoxycarbonylamino)-2-hydroxy-2-methyl-3-(4-pyridyl)propionyl]-4,10-dideacetyl-9-dihydro-9,10-O-isopropylidene-4-O-propionylbaccatin III [Inventive Example 90] | 0.209 ng/mL | 0.0943 ng/mL | 0.0519 ng/mL |  |
| 9β-13-O-[3-(tert-Butoxycarbonylamino)-3-(2-furyl)-2-hydroxy-2-methylpropionyl]-4-O-cyclopropanecarbonyl-4,10-dideacetyl-9-dihydro-9,10-O-(2-morpholinoethylidene)baccatin III [Inventive Example 57] | 0.734 ng/mL | 0.0739 ng/mL | 0.0135 ng/mL |  |
| 9β-13-O-[3-(tert-Butoxycarbonylamino)-2-hydroxy-2-methyl-3-(4-pyridyl)propionyl]-4-O-cyclopropanecarbonyl-4,10-dideacetyl-9-dihydro-9,10-O-isopropylidenebaccatin III [Inventive Example 60] | 0.395 ng/mL | 0.0698 ng/mL | 0.0129 ng/mL |  |
| 9β-13-O-[(2R,3S)-3-(tert-Butoxycarbonylamino)-2-hydroxy-3-phenylpropionyl]-4-O-cyclopropanecarbonyl-4,10-dideacetyl-9-dihydro-9,10-O-(2-morpholinoethylidene)baccatin III [Inventive Example 53] | 0.874 ng/mL | 0.0758 ng/mL | 0.0128 ng/mL |  |
